What was measured:
Format in all cases: physicochemical
[1] = Particle size of PTEN ASO-LNP; conditions: PTEN ASO lipid particles; aminolipid 50 / DSPC 20 / cholesterol 28.5 / monostearyl PEG 1.5 mol %; lipid/nucleic acid 11.8 wt/wt
Protocol: (§1) The first lipid, phospholipid, cholesterol, and polyethylene glycol lipid (PEG lipid) shown in Table 3 were dissolved in ethanol at the molar ratio shown in Table 3 such that the total lipid concentration was 20 mmol/L to obtain the oil phase.
(§2) As the neutral lipid, 1,2-Distearoyl-sn-glycero-3-phosphocholine (DSPC, product name: COATSOME MC-8080, NOF corporation) was used. As the cholesterol, cholesterol (product name: Cholesterol HP; Nippon Seika Co., Ltd.) was used. As the PEG lipid, monostearyl PEG (product name: Polyethylene Glycol Monostearate (4E.O.), FUJIFILM Wako Pure Chemical Corporation) was used.
(§3) 5 mg of PTEN ASO was dissolved in 1 mL of sterile water and diluted with a 10 mmol/L acetate buffer having a pH of 4 such that the nucleic acid concentration was 54.6 μmol/L, to obtain a water phase. Then the water phase and the oil phase were mixed together with a micromixer (see JP5288254B) using a syringe pump such that the volume ratio of water phase:oil phase was 3:1, and the mixed solution was two-fold diluted with a phosphate buffered physiological saline (PBS), thereby obtaining a dispersion of nucleic acid lipid particles.
The particle size and polydispersion index of the lipid particles were measured by 10-fold diluting the dispersion liquid of lipid particle with phosphate buffered physiological saline (PBS) using Zeta-potential & Particle size Analyzer ELS-Z2 (Otsuka Electronics Co., Ltd.).

[2] = system: PTEN ASO; test: Encapsulation rate of PTEN ASO in lipid particles; conditions: aminolipid 50 / DSPC 20 / cholesterol 28.5 / monostearyl PEG 1.5 mol %, lipid/nucleic acid 11.8 wt/wt
Protocol: as §1, §2, §3
30 μL of 3 mol/L aqueous sodium acetate solution and 9 μL of glycogen were added to 60 μL of the lipid particles retaining nucleic acids, and then 1.5 mL of ethanol was added thereto, so that only the nucleic acids were precipitated while the lipid was dissolved. Then, the supernatant was removed by centrifugation. The precipitates were air-dried for 15 minutes or longer, then water was added thereto to redissolve the precipitates, and the concentration thereof was measured using Nanodrop ND1000 (Thermo Fisher Scientific), thereby quantifying the total nucleic acid concentration.
The mRNA concentration was quantified using a Quant-iT RiboGreen RNA Assay Kit (Thermo Fisher Scientific) according to the protocol. First, a 20×TE buffer included in the above-described kit was diluted with water, thereby obtaining a 1×TE buffer. TE represents Tris/EDTA (ethylenediaminetetraacetic acid). In order to quantify only the nucleic acid in the outer water phase, the dispersion liquid of lipid particles retaining nucleic acids was 10,000-fold diluted with the 1×TE buffer.
100 μL of the 10,000-fold diluted dispersion liquid of lipid particles was put into a 96-well plate, then 100 μL of a RiboGreen reagent (reagent included in the Quanti-iT Ribogreen RNA Assay Kit described above) 2,000-fold diluted with the 1×TE buffer was added to a sample, and fluorescence (excitation wavelength: 485 nm, fluorescence wavelength: 535 nm) was measured using a plate reader Infinite F200 (TECAN), thereby quantifying the nucleic acid concentration in the outer water phase.
By using the quantification results of the total nucleic acid concentration and the nucleic acid concentration in the outer water phase that were obtained through the above steps, the nucleic acid encapsulation rate of the nucleic acid lipid particles was calculated according to the following Equation.
Nucleic acid encapsulation rate (%)=(total nucleic acid concentration—nucleic acid concentration in outer water phase)/total nucleic acid concentration×100

[3] = Particle size of FLuc mRNA-encapsulating lipid particles
Protocol: (§4) The compounds described in Table 2, the neutral lipid, cholesterol (product name: Cholesterol HP; NTPPON FINE CHEMICAL CO., LTD.), and 1,2-dimyristoyl-rac-glycero-3-(methylpolyoxyethylene 2000) (hereinafter, called DMG-PEG2000) were dissolved in ethanol at a molar ratio in Table 2 such that the total lipid concentration became 20 mmol/L, thereby obtaining an oil phase.
(§5) As the neutral lipid, 1,2-distearoyl-sn-glycero-3-phosphocholine (product name: COATSOME® MC-8080; NOF corporation) was used in a case of Comparative Example 1, and L-α-dioleoylphosphatidylethanolamine (product name: COATSOME® MC-8181; NOF corporation) was used in a case other than Comparative Example 1.
(§6) FLuc mRNA (product name: CleanCap FLuc mRNA (5 moU); TriLink) was diluted with 50 mmol/L citrate buffer having a pH 4 such that the weight ratio of total lipid concentration to mRNA concentration is about 19:1 to 64:1, obtaining a water phase. Then, the water phase and the oil phase were mixed together using NanoAssemblr (Precision NanoSystems) such that the volume ratio of water phase:oil phase was 3:1, and the mixed solution was 1.5-fold diluted with phosphate buffered saline (PBS), thereby obtaining a dispersion liquid of mRNA lipid particles. The dispersion liquid was dialyzed with a 10% aqueous sucrose solution using a dialysis cassette (Slide-A-Lyzer G2, MWCO: 10 kD, Thermo Fisher Scientific) to remove ethanol, thereby obtaining FLuc mRNA-encapsulating lipid particles.
The particle size of the mRNA-encapsulating lipid particles was measured by 10-fold diluting the dispersion liquid of lipid particle with phosphate buffered saline (PBS) using Zeta-potential & Particle size Analyzer ELS-Z2 (Otsuka Electronics Co., Ltd.).

[4] = system: FLuc mRNA; test: mRNA encapsulation rate of FLuc mRNA-encapsulating lipid particles
Protocol: as §4, §5, §6
15 to 30 μL of a 3 mol/L aqueous sodium acetate solution and 4.5 to 9 μL of glycogen were added to 30 to 60 μL of the lipid particles retaining mRNA, and 0.75 to 1.5 mL of ethanol was added thereto, so that only the nucleic acids were precipitated while the lipid was dissolved. Then, the supernatant was removed by centrifugation. The precipitates were air-dried for 15 minutes or longer, then water was added thereto to redissolve the precipitates, and the concentration thereof was measured using Nanodrop NF1000 (Thermo Fisher Scientific), thereby quantifying the total mRNA concentration.
The mRNA concentration was quantified using a Quant-iT RiboGreen RNA Assay Kit (Thermo Fisher Scientific) according to the protocol. First, a 20×TE buffer included in the above-described kit was diluted with water, thereby obtaining a 1×TE buffer. TE represents Tris/EDTA (ethylenediaminetetraacetic acid). In order to quantify only mRNA in the outer water phase, the dispersion liquid of lipid particles retaining mRNA was 10,000-fold diluted with the 1×TE buffer. 100 μL of the 10,000-fold diluted dispersion liquid of lipid particles was put into a 96-well plate, then 100 μL of a RiboGreen reagent (reagent included in the Quanti-iT Ribogreen RNA Assay Kit described above) 2,000-fold diluted with the 1×TE buffer was added to a sample, and fluorescence (excitation wavelength: 485 nm, fluorescence wavelength: 535 nm) was measured using a plate reader Infinite F200 (TECAN), thereby quantifying the mRNA concentration in the outer water phase.
By using the quantification results of the total mRNA concentration and the mRNA concentration in the outer water phase that were obtained through the above steps, the mRNA encapsulation rate of the mRNA lipid particles was calculated according to the following Equation.
mRNA encapsulation rate (%)=(total mRNA concentration-mRNA concentration in outer water phase)/total mRNA concentration×100

[5] = aminolipid 45 / DOPE 10 / cholesterol 43.5 / DMG-PEG2000 1.5 mol %, lipid/nucleic acid 32 wt/wt
[6] = aminolipid 40 / DOPE 10 / cholesterol 48.5 / DMG-PEG2000 1.5 mol %, lipid/nucleic acid 64 wt/wt
[7] = aminolipid 50 / DOPE 10 / cholesterol 38.5 / DMG-PEG2000 1.5 mol %, lipid/nucleic acid 64 wt/wt

Particle size [1] [nm] | Nucleic acid encapsulation rate [2] [%] | Particle size [3, 5] [nm] | Nucleic acid encapsulation rate [4, 5] [%] | Particle size [3, 6] [nm] | Particle size [3, 7] [nm] | Nucleic acid encapsulation rate [4, 6] [%] | Nucleic acid encapsulation rate [4, 7] [%] | Structure (SMILES)
58.6 | 92 |  |  |  |  |  |  | CCCCCCCOC(=O)CCCC(CCCC(=O)OCCCCCCC)OC(=O)OCCN(CCOC(=O)OC(CCCC(=O)OCCCCCC)CCCC(=O)OCCCCCC)CCN(CC)CC [Example 37, 1-Heptyl 21-hexyl 11-(2-(diethylamino)ethyl)-5-(4-(heptyloxy)-4-oxobutyl)-17-(4-(hexyloxy)-4-oxobutyl)-7,15-d ioxo-6,8,14,16-tetraoxa-11-azahenicosanedioate]
81.5 | 96 | 100.9 | 98.4 |  |  |  |  | CCCCCC(CCCCC)COC(=O)CCCC(CCC)OC(=O)OCCN(CCOC(=O)OC(CCC)CCCC(=O)OCC(CCCCC)CCCCC)CCN(CC)CC (centres unmarked) [Example 21, Bis(2-pentylheptyl) 11-(2-(diethylamino)ethyl)-7,15-dioxo-5,17-dipropyl-6,8,14,16-tetraoxa-11-azahenicosanedioate]
87.7 | 93 |  |  |  |  |  |  | CCCCCCC(CCCC)COC(=O)CCCC(CCCCCC)OC(=O)OCCN(CCOC(=O)OC(CCCCCC)CCCC(=O)OCC(CCCC)CCCCCC)CCN(CC)CC (centres unmarked) [Example 8, Bis(2-butyloctyl) 11-(2-(diethylamino)ethyl)-5,17-dihexyl-7,15-dioxo-6,8,14,16-tetraoxa-11-azahenicosanedioate]
104.3 | 92 | 129 | 95.0 | 104.8 | 95.1 | 100.0 | 100.0 | CCCCCCCOC(=O)CCCC(CCCC(=O)OCCCCCCC)OC(=O)OCCN(CCOC(=O)OC(CCCC(=O)OCCCCCCC)CCCC(=O)OCCCCCCC)CCN(CC)CC [Example 29, diheptyl 11-(2-(diethylamino)ethyl)-5,17-bis(4-(heptyloxy)-4-oxobutyl)-7,15-dioxo-6,8,14,16-tetraoxa-11-azahenicosanedioate]
60.4 | 97 | 83.4 | 99.1 |  |  |  |  | CCCCCCC(CCCC(=O)OCC(CCCCC)CCCCC)OC(=O)OCCN(CCCN(CC)CC)CCOC(=O)OC(CCCCCC)CCCC(=O)OCC(CCCCC)CCCCC (centres unmarked) [Example 13, Bis(2-pentylheptyl) 11-(3-(diethylamino)propyl)-5,17-dihexyl-7,15-dioxo-6,8,14,16-tetraoxa-11-azahenicosanedio ate]

— patent US20240124389A1, “COMPOUND OR SALT THEREOF, LIPID PARTICLES, AND PHARMACEUTICAL COMPOSITION” (FUJIFILM Corporation, priority 2021, published 2024)
